“And” between values parts separate entries of the source, which are not always exact repeats. Identical values can stand only once. Like-named read-outs stand apart in the source and are kept apart here.
What was measured:
[1] = test system: influenza virus A/Puerto Rico/8/34 (H1N1); conditions: influenza A/Puerto Rico/8/34 (H1N1); MDCK cells
HSV-1/L2/R [2] = assay: microbe, parasite or virus in culture; conditions: for SI (CC50/IC50): HSV-1/L2/R (acyclovir-resistant), Vero E6 cells; for IC50: Human alphaherpesvirus 1, Vero C1008, read-out: IC50 (50% inhibition of virus-induced CPE)
Description: (§1) The anti-herpesvirus activity of the synthesized compounds 5a–e was studied against the reference strain HSV-1/L2 and the acyclovir-resistant strain HSV-1/L2/R in the Vero E6 cells (Table 1) by suppressing the virus-induced cytopathogenic effect (CPE) as described previously. Acyclovir, Foscarnet (sodium phosphonoformate hexahydrate), a drug of choice in clinical practice in case of inefficiency of acyclovir and related compounds, including cases of drug resistance, and Ribavirin, were used as reference drugs. To assess the cytotoxicity of the studied compounds, the percentage of viable and non-viable cells was determined using Trypan blue exclusion assay.

HSV-1/L2 [3] = assay: Suppression of virus-induced cytopathogenic effect (CPE), reference strain HSV-1/L2 in Vero E6 cells; conditions: for IC50: Human alphaherpesvirus 1, Vero C1008, read-out: IC50 (50% inhibition of virus-induced CPE)
Description: as §1

in vitro = conditions: dog
[4] = Cytotoxicity in Vero E6 cells (Trypan blue exclusion assay); conditions: African green monkey
Description: as §1

[5] = test system: influenza virus A/Puerto Rico/8/34 (H1N1); assay: organism not typed; conditions: MDCK, read-out: IC50 (50% inhibition of virus-induced CPE)
HSV-1/L2/R [6] = conditions: HSV-1/L2/R (acyclovir-resistant); Vero E6 cells; data for comparison; ref [27]; cited from earlier work
MDCK cells = conditions: read-out: CC50 ± SD, data for comparison, ref [31]; cited from earlier work
Vero E6 cells = conditions: read-out: CC50 ± SD, data for comparison, ref [27]; cited from earlier work
HSV-1/L2 [7] = conditions: cited from earlier work
[8] = test system: influenza virus A/Puerto Rico/8/34 (H1N1); conditions: influenza A/Puerto Rico/8/34 (H1N1), MDCK cells, data for comparison, ref [31], cited from earlier work

| Compound | SI (CC50/IC50) [1] | SI (CC50/IC50) (HSV-1/L2/R [2]) | IC50 (HSV-1/L2/R [2]) | SI (CC50/IC50) (HSV-1/L2 [3]; HSV-1/L2, Vero E6 cells) | IC50 (HSV-1/L2 [3]) | melting point | CC50 (in vitro) | CC50 [4] | IC50 [5] | other results |
| --- | --- | --- | --- | --- | --- | --- | --- | --- | --- | --- |
| CC1COc2c(ccc(F)c2F)N1C(=O)CCCCCNc1cc(Cl)ncn1 (racemic) [(RS)-5c, (RS)-4-[6-(6-Chloropyrimidin-4-yl)aminohexanoyl]-7,8-difluoro-3,4-dihydro-3-methyl-2H-[1,4]benzoxazine] | 1 | 2 | 152 µM | >2.0 | 148 µM | 101 to 103 °C | 9 ± 1 µM | > 304 µM | > 8 µM | – |
| CC1COc2c(ccc(F)c2F)N1C(=O)CCCCCNc1cc(Cl)nc(N)n1 (racemic) [(RS)-5b, (RS)-4-[6-(2-Amino-6-chloropyrimidin-4-yl)aminohexanoyl]-7,8-difluoro-3,4-dihydro-3-methyl-2H-[1,4]benzoxazine] | <8 | <4 | 73.4 µM | 3.7 | 73.4 µM | 92 to 94 °C | 705 ± 42 µM | 275 ± 4.3 µM | 92 ± 11 µM | – |
| NC(=O)c1ncn([C@@H]2O[C@H](CO)[C@@H](O)[C@H]2O)n1 [Ribavirin, reference compound] | – | >4 | 1020 µM | – | 1020 µM | – | – | > 4100 µM | – | SI (CC50/IC50) (HSV-1/L2 [3]): >4 |
| C[C@@H]1COc2c(ccc(F)c2F)N1C(=O)CCCCCNc1ccnc(N)n1.C[C@@H]1COc2c(ccc(F)c2F)N1C(=O)CCCCCNc1ccnc(N)n1.O.O.O (racemic) [(RS)-5a, (RS)-4-[6-(2-Aminopyrimidin-4-yl)aminohexanoyl]-7,8-difluoro-3,4-dihydro-3-methyl-2H-[1,4]benzoxazine Sesquihydrate] | >1 | 8 | 18.6 µM | 8 and 8.1 | 18.6 µM | – | 11 ± 1 µM | 151 ± 8.36 µM | 8 ± 1 µM | – |
| C[C@H]1COc2c(ccc(F)c2F)N1C(=O)CCCCCNc1ncnc2[nH]cnc12 [(S)-1] | – | – | – | – | – | – | – | – | – | SI (CC50/IC50) (HSV-1/L2/R [6]): 64 ^1; CC50 (MDCK cells): 24 ± 1 µM; CC50 (Vero E6 cells): 293 ± 15.5 µM; SI (CC50/IC50) (HSV-1/L2 [7]; Vero E6 cells, data for comparison, ref [27]): 64; IC50 (HSV-1/L2 [7]; read-out: IC50 (50% inhibition of virus-induced CPE), Vero E6 cells, data for comparison, ref [27]): 4.6 µM; SI (CC50/IC50) [8]: >2 ^1; IC50 ([8]; read-out: IC50 (50% inhibition of virus-induced CPE)): > 10 µM |
| C[C@@H]1COc2c(ccc(F)c2F)N1C(=O)CCCCCNc1ncnc2[nH]ccc12.C[C@@H]1COc2c(ccc(F)c2F)N1C(=O)CCCCCNc1ncnc2[nH]ccc12.O (racemic) (hydrate or solvate) [(RS)-5e, (RS)-7,8-Difluoro-3,4-dihydro-3-methyl-4-[6-(7H-pyrrolo[2,3-d]pyrimidin-4-yl)aminohexanoyl]-2H-[1,4]benzoxazine Hemihydrate] | – | – | – | – | – | 86 to 88 °C | – | – | – | – |
| C[C@H]1COc2c(ccc(F)c2F)N1C(=O)CCCCCNc1ncnc2[nH]ccc12 [(S)-5e, (3S)-7,8-Difluoro-3,4-dihydro-3-methyl-4-[6-(7H-pyrrolo[2,3-d]pyrimidin-4-yl)aminohexanoyl]-2H-[1,4]benzoxazine] | <2 | 6 | 75.2 µM | 6 and 6.3 | 74.2 µM | 87 to 89 °C | 47 ± 3 µM | 469 ± 10.8 µM | > 26 µM | – |
| C[C@H]1COc2c(ccc(F)c2F)N1C(=O)CCCCCNc1ccnc(N)n1.O (hydrate or solvate) [(S)-5a, (S)-4-[6-(2-Aminopyrimidin-4-yl)aminohexanoyl]-7,8-difluoro-3,4-dihydro-3-methyl-2H-[1,4]benzoxazine Hydrate] | – | – | – | – | – | 78 to 80 °C | – | – | – | – |
| C[C@@H]1COc2c(ccc(F)c2F)N1C(=O)CCCCCNc1ncnc2[nH]ccc12.C[C@@H]1COc2c(ccc(F)c2F)N1C(=O)CCCCCNc1ncnc2[nH]ccc12.O (racemic) [(RS)-5e, (RS)-7,8-Difluoro-3,4-dihydro-3-methyl-4-[6-(7H-pyrrolo[2,3-d]pyrimidin-4-yl)aminohexanoyl]-2H-[1,4]benzoxazine Hemihydrate] | 1 | <1 | 18.6 µM | <1 | 18.6 µM | – | 86 ± 4 µM | 17.6 ± 0.85 µM | > 80 µM | – |
| Nc1nc2c(ncn2COCCO)c(=O)[nH]1 [Acyclovir, reference compound] | – | 1 | > 444 µM | – | 1.73 µM | – | – | > 444 µM | – | SI (CC50/IC50) (HSV-1/L2 [3]): >256 |
| CCC(CC)O[C@@H]1C=C(C(=O)O)C[C@H](N)[C@H]1NC(C)=O [Oseltamivir carboxylate, reference compound] | >667 | – | – | – | – | – | > 200 µM | – | 0.3 µM | – |
| C[C@H]1COc2c(ccc(F)c2F)N1C(=O)CCCCCNc1ccnc(N)n1.O [(S)-5a, (S)-4-[6-(2-Aminopyrimidin-4-yl)aminohexanoyl]-7,8-difluoro-3,4-dihydro-3-methyl-2H-[1,4]benzoxazine Hydrate] | >3 | <4 | 9.27 µM | 3.7 | 9.27 µM | – | 23 ± 1.2 µM | 34.6 ± 0.88 µM | 7 ± 1 µM | – |
| CC1COc2c(ccc(F)c2F)N1C(=O)CCCCCNc1ncccn1 (racemic) [(RS)-5d, (RS)-7,8-Difluoro-3,4-dihydro-3-methyl-4-[6-(pyrimidin-2-yl)aminohexanoyl]-2H-[1,4]benzoxazine] | – | <2 | 297 µM | 1.7 | 297 µM | 106 to 108 °C | 257 ± 12 µM | 505 ± 17.7 µM | > 88 µM | – |
| O=C(O)P(=O)(O)O [Foscarnet, sodium phosphonoformate hexahydrate, reference compound] | – | >4 | 104 µM | – | 104 µM | – | – | > 417 µM | – | SI (CC50/IC50) (HSV-1/L2 [3]): >4 |
| C[C@@H]1COc2c(ccc(F)c2F)N1C(=O)CCCCCNc1ccnc(N)n1.C[C@@H]1COc2c(ccc(F)c2F)N1C(=O)CCCCCNc1ccnc(N)n1.O.O.O (racemic) (hydrate or solvate) [(RS)-5a, (RS)-4-[6-(2-Aminopyrimidin-4-yl)aminohexanoyl]-7,8-difluoro-3,4-dihydro-3-methyl-2H-[1,4]benzoxazine Sesquihydrate] | – | – | – | – | – | 59 to 60 °C | – | – | – | – |
